The text below walks through data of patent publication US20060188557A1, “Prepartaion for external percutaneous administration containing non-steroidal anti-inflammatory drug and interleukin-1 alpha production inhibitor” (Hisamitsu Pharmaceutical Co., Inc., priority 2003, published 2006).

Assay [1] has as its system auricle of a Balb/c mouse. Kind of assay: In vivo photosensitivity test (ketoprofen-induced ear thickness increase after UVA). Conditions: 20 μL on auricle, 40 J/cm^2 UVA, 24 hours. Here is the method:
The following experiment was conducted with reference to the method of Gerberick et al. (Food Chem. Toxicol., 27, 813-819(1989)) with some modifications. First, ethanol was used to prepare a mixed solution containing the test substances shown in Tables 4 and 5 {tert-butylhydroxyanisole (BHA), di-tert-butylhydroxytoluene […], propyl gallate} and 2% ketoprofen. As a control a 2% ketoprofen solution was prepared using ethanol. Next, 20 μL of each prepared solution (N=8) was applied onto the auricle of a Balb/c mouse (female, 9-11 weeks old), prior to irradiation with 40 J/cm^2 UVA. When 24 hours had passed after UVA irradiation, the ear thickness of the mouse was measured and the increase with respect to the initial ear thickness was calculated. […] The abbreviation “PG” in the tables stands for “propyl gallate”.

For assay [2], the system named is heparin-added rabbit venous blood (whole blood). Kind of assay: In vitro phototoxicity test (ketoprofen-associated photohemolysis). Conditions: Oryctolagus cuniculus, light or radiation study, with ketoprofen, 7.5 J/cm^2 UVA. The assay is classed as cell-based. The protocol: The following experiment was conducted according to “Guidelines for basic biological tests of medical materials and devices”, Part VII “Hemolysis Test”. First, each of the test substances listed in Table I (Example 1), Table 2 (Example 2) and Table 3 (Example 3) {tert-butylhydroxyanisole (BHA), di-tert-butylhydroxytoluene (BHT), thymol, propyl gallate} and ketoprofen were dissolved in N,N-dimethylformamide (DMF) to 20-fold compared to the concentration shown in the tables (1000 μg/mL of ketoprofen). Also, after further diluting these solutions 5-fold in phosphate buffered saline (PBS), equal amounts of each test substance solution and the ketoprofen solution were combined. As a control, ketoprofen alone was dissolved in DMF to […], and diluted 10-fold with PBS to prepare a solution. These solutions were dispensed in 1 mL portions into a 24-well multiwell plate, and then 1 mL of PBS containing 40 μL of heparin-added rabbit venous blood (whole blood) per 5 mL was added to each to prepare reaction solutions.
An ultraviolet irradiating apparatus (UVP Lamp Fixture, UVP) equipped with two ultraviolet lamps (FL15BLB, Sankyo Denki) was used to irradiate the reaction solutions with 7.5 J/cm^2 UVA (ultraviolet rays of wavelength 320-400 nm) in an incubator set to 37° C., with the cover removed from the plate containing the reaction solutions (UVA is associated with drug-induced photosensitivity). During the ultraviolet irradiation, a 3 mm-thick glass plate was placed between the light source and the reaction solutions to cut ultraviolet rays of 320 nm wavelength and shorter. The incubation time was 60 minutes, including the irradiation time. After completion of the reaction, the solutions were centrifuged, the obtained 100 μL of supernatant (N=3) was transferred to a 96-well assay plate and the absorbance at 540 nm (Abs540) was measured as an index of hemolysis. The effects of each of the test substances in Tables 1 to 3 on ketoprofen-associated photohemolysis were evaluated as the hemolysis inhibition (%) with respect to the control group, calculated using Abs540.

Assay [3] relates to IL-1α production in HPV16 immobilized human adult keratinocytes (KERTr). Description: IL-1α production in ketoprofen-treated, UVA-irradiated keratinocytes (ELISA). The assay is classed as cell-based. Conditions: 75 μM ketoprofen, 6-8 J/cm^2 UVA, 24 hours after irradiation. Here is the method: After adding a mixed solution of 75 μM ketoprofen and different concentrations of propyl gallate to a culturing medium (EpiLife™ Serum Free Medium E0151) (Cascade Biologics, Inc.) containing HPV16 immobilized human adult keratinocytes (KERTr) KUK001 (ATCC Co., Rockville, Md.), the mixture was incubated for 2 hours at […] in 5% carbon dioxide/95% air, and then irradiated with 6-8 J/cm^2 UVA. When 24 hours had passed after UVA irradiation, the IL-1α concentration of the culture supernatant was evaluated with an ELISA kit (R&D Systems, Inc.). As a control, there was used the above-mentioned culturing medium to which a solution of 75 μM ketoprofen alone was added, which was incubated for 2 hours at 37° C. in 5% carbon dioxide/95% air, and which was not irradiated with UVA.
An experiment was conducted in the same manner as Example 6 using di-tert-butylhydroxytoluene (BHT) instead of propyl gallate.
For orientation: In an ELISA, binding on a coated surface is turned into a signal by an enzyme label.

Assay [4] in a line: Synergistic phototoxicity-reducing action of combinations (method not described).

SMILES strings stand for the structures.

Take `COc1ccc(O)cc1C(C)(C)C` [BHA, 2-tert-butyl-4-oxyanisole]: the “Auricular edema inhibition (%)” value in assay [1] (0.5% BHA with 2% ketoprofen in ethanol) came out at 24%.

With `Cc1cc(C(C)(C)C)c(O)c(C(C)(C)C)c1` [BHT, 2,6-di-tert-butyl-p-cresol], the hemolysis inhibition at 0.125 µg/mL in assay [2] (BHT 0.125 μg/mL, propyl gallate 0) is -3.7%. Further, the hemolysis inhibition at 0.25 µg/mL in assay [2] (BHT 0.25 μg/mL, propyl gallate 0) came to 9.6%. In addition, the hemolysis inhibition at 0.5 µg/mL in assay [2] (BHT 0.5 μg/mL, propyl gallate 0) came out at 49.6%. Besides, the hemolysis inhibition at 1 µg/mL in assay [2] (BHT 1 μg/mL, propyl gallate 0) worked out at 88.9%. Also, in assay [1] (1.0% BHT with 2% ketoprofen in ethanol), the “Auricular edema inhibition (%)” value is 16%. Besides, the “IL-1α production (IL-1α concentration in the culture supernatant)” value in assay [3] is on record as “IL-1α production is inhibited”.

Turning to `CCCOC(=O)c1cc(O)c(O)c(O)c1` [Propyl gallate, propyl gallate], the hemolysis inhibition at 0.5 µg/mL in assay [2] (Table 1: propyl gallate 0.5 μg/mL, BHA 0) came to 25.5%; in assay [2] (Table 2: propyl gallate 0.5 μg/mL, BHT 0), 3.6%; in assay [2] (Table 3: propyl gallate 0.5 μg/mL, thymol 0) it was 2.1%. Besides, the hemolysis inhibition at 1 µg/mL in assay [2] (Table 1: propyl gallate 1 μg/mL, BHA 0) was 66%; in assay [2] (Table 2: propyl gallate 1 μg/mL, BHT 0) it was 45.4%; in assay [2] (Table 3: propyl gallate 1 μg/mL, thymol 0), 63.8%. The hemolysis inhibition at 2 µg/mL is 88.9% in assay [2] (Table 1: propyl gallate 2 μg/mL, BHA 0); 91.2% in assay [2] (Table 2: propyl gallate 2 μg/mL, BHT 0); 88% in assay [2] (Table 3: propyl gallate 2 μg/mL, thymol 0). For the same compound, the entries for the “Auricular edema inhibition (%)” value in assay [1] (Table 4: 0.2% PG with 2% ketoprofen in ethanol) and in assay [1] (Table 5: 0.2% PG with 2% ketoprofen in ethanol) were 21% and 19%, respectively. The “IL-1α production (IL-1α concentration in the culture supernatant)” value in assay [3] is listed as “IL-1α production is inhibited”.

For the compound `Cc1ccc(C(C)C)c(O)c1` [Thymol, 6-isopropyl-m-cresol], the hemolysis inhibition at 0.5 µg/mL in assay [2] (thymol 0.5 μg/mL, propyl gallate 0) was 10.8%. For the same compound, the hemolysis inhibition at 1 µg/mL in assay [2] (thymol 1 μg/mL, propyl gallate 0) is 41.1%. For the same compound, the hemolysis inhibition at 2 µg/mL in assay [2] (thymol 2 μg/mL, propyl gallate 0) was determined as 70.7%.

As for `CCCCCCCCC(=O)NCc1ccc(O)c(OC)c1` [nonylic vanillylamide], the “synergistic effect on the phototoxicity-reducing action” value in assay [4] is listed as “No such synergistic effect is observed”.
